The results in this text go back to patent publication US20030176477A1 (priority 2000, published 2003).

Data set [1] has as its system Pyricularia oryzae. Briefly: whole plant or invertebrate. The data set is classed as in vivo. To be noted: 168 h, read-out: control value.
The test system of data set [2] is Pyricularia oryzae. The data set can be described thus: whole plant or invertebrate. The data set is classed as in vivo. Conditions: foliar, 168 h, read-out: control value.

Read-outs that look alike come from different tables or passages of the source. A value given as a limit tells only on which side of the number the result lay.

With `O=C(S)c1snc(Cl)c1Cl`, the melting point – broadly, the temperature, or range, at which the solid turns liquid – was 79 to 80 °C.

`O=C(NC(Sc1nnc(-c2ccccc2)s1)C(F)(F)F)c1snc(Cl)c1Cl` (stereo not shown) gave a melting point of 124 to 127 °C.

The compound `O=C(c1snc(Cl)c1Cl)n1[nH]c(-c2ccc(Cl)cc2)cc1=O` [compound 288] registered a melting point greater than 250 °C. Also, the pest or weed control at 500 ppm in data set [1] was greater than 80%.

In turn, `O=C(NCSc1ccc(Cl)cc1)c1snc(Cl)c1Cl` [compound 65, N-(4-chlorophenylthiomethyl)-3,4-dichloro-5-isothiazolecarboxamide] registered a melting point of 106 to 107 °C. For the same compound, in data set [2], the pest or weed control at 500 ppm was greater than 80%.

The compound `O=C(NC(O)C(F)(F)F)c1snc(Cl)c1Cl` (stereo not shown) [compound 48, N-(2,2,2-trifluoro-1-hydroxyethyl)-3,4-dichloro-5-isothiazolecarboxamide] returned a melting point of 90 to 93 °C. Moreover, in data set [2], the pest or weed control at 500 ppm is greater than 80%.

As for `O=CN(CNC(=O)c1snc(Cl)c1Cl)Cc1ccccc1`, the melting point lay in the range of 102 to 103 °C. The pest or weed control at 500 ppm in data set [2] is greater than 80%. Moreover, the pest or weed control at 500 ppm in data set [1] is greater than 80%.

In the case of `CCOC(NC(=O)c1snc(Cl)c1Cl)C(F)(F)F` (stereo not shown) [compound 49, N-(2,2,2-trifluoro-1-ethoxyethyl)-3,4-dichloro-5-isothiazolecarboxamide], the melting point lay within 99 to 101 °C. In addition, the pest or weed control at 500 ppm in data set [1] is greater than 80%.

As to `Cc1cc(C)n(COC(=O)c2snc(Cl)c2Cl)n1` [compound 98, 3,5-dimethylpyrazol-1-ylmethyl 3,4-dichloro-5-isothiazolecarboxylate], the melting point lay within 80 to 81 °C. Further, the pest or weed control at 500 ppm in data set [2] was greater than 80%.

For the compound `N#C/C(=N\c1ccc(C(F)(F)F)cc1)NC(=O)c1snc(Cl)c1Cl`, the melting point fell in the range of 151 to 153 °C.

With `Cc1c(-c2ccccc2)[nH]n(C(=O)c2snc(Cl)c2Cl)c1=O`, the melting point lay in the range of 190 to 191 °C.

For `CC1(C)OCC(CNC(=O)c2snc(Cl)c2Cl)O1` (stereo not shown), the melting point lay within 132 to 133 °C.

In the case of `COCNC(=O)c1snc(Cl)c1Cl`, the melting point fell in the range of 79 to 87 °C.

Compound `CN(C)/C=N/C(=O)c1snc(Cl)c1Cl` [compound 290, N-dimethylaminomethylidene-3,4-dichloro-5-iso thiazolecarboxamide] gave a melting point of 196 to 197 °C. The pest or weed control at 500 ppm in data set [1] is greater than 80%.

Take `O=C(Nc1ccc(C(F)(F)F)cc1)OCNC(=O)c1snc(Cl)c1Cl` [compound 58, N-[N-(4-trifluoromethylphenyl)-carbamoyloxymethyl]-3,4-dichloro-5-isothiazolecarboxamide]: the melting point lay within 117 to 119 °C. In data set [1], the pest or weed control at 500 ppm was greater than 80%.

With `O=C(NCO)c1snc(Cl)c1Cl` [compound 45, N-hydroxymethyl-3,4-dichloro-5-isothiazolecarboxamide], the pest or weed control at 500 ppm in data set [2] is greater than 80%.

Compound `Cn1nnnc1SCN(CNC(=O)c1snc(Cl)c1Cl)C(=O)c1snc(Cl)c1Cl` [compound 154, N-[(3,4-dichloro-5-isothiazolecarboxamido)-methyl]-N-(1-methyl-5-tetrazolethiomethyl)-3,4-dichloro-5-isothiazolecarboxamide] had a melting point of 185 to 188 °C. Besides, the pest or weed control at 500 ppm in data set [1] is greater than 80%.

As for `O=C(NCS(=O)(=O)c1ccccc1)c1snc(Cl)c1Cl` [compound 71, N-phenylsulfonylmethyl-3,4-dichloro-5-isothiazolecarboxamide], the melting point was 175 to 176 °C. The pest or weed control at 500 ppm in data set [2] was greater than 80%.

Turning to `O=C(NCC(O)CO)c1snc(Cl)c1Cl` (stereo not shown), the melting point is 68 to 72 °C.

In turn, `CCCC(NC(C)=O)NC(=O)c1snc(Cl)c1Cl` (stereo not shown) [compound 112, N-[1-(acetamido)butyl]-3,4-dichloro-5-isothiazolecarboxamide] gave a melting point of 162 to 165 °C. In data set [2], the pest or weed control at 500 ppm is greater than 80%. In addition, the pest or weed control at 500 ppm in data set [1] is greater than 80%.

`N#CC(=CNNC(=O)c1snc(Cl)c1Cl)c1ccccc1` displayed a melting point of 212 to 214 °C.

The compound `Cn1nnnc1SCNC(=O)c1snc(Cl)c1Cl` [compound 76, N-(1-methyl-5-tetrazolethiomethyl)-3,4-dichloro-5-isothiazolecarboxamide] registered a melting point of 176 to 177 °C. In addition, in data set [2], the pest or weed control at 500 ppm is greater than 80%. The pest or weed control at 500 ppm in data set [1] is greater than 80%.

`CN(NC=C(C#N)c1ccccc1)C(=O)c1snc(Cl)c1Cl`: the melting point is 130 to 139 °C.
